The text below walks through data of US20160237067A1, “SUBSTITUTED PHENYLALANINE DERIVATIVES” (BAYER PHARMA AKTIENGESELLSCHAFT, priority 2013, published 2016).

One assay concerns the target T1, human factor XIa (Homo sapiens, UniProt P03951).
T1 construct: purchased Kordia
In words: Measurement of FXIa inhibition (fluorogenic peptide substrate Boc-Glu(OBzl)-Ala-Arg-AMC). In kind it is biochemical. The note with it: factor XIa from Kordia 0.45 nM; 15 min preincubation; 30 min at 22° C.

Another assay relates to human and animal plasma. In words: Determination of anticoagulatory activity: activated partial thromboplastin time (aPTT) in plasma. The class given is biochemical. The note with it: C.K. Prest kit, 37° C., 3 minutes incubation, plasma species of Table B not stated. The method, boiled down: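 Citrated human or animal plasma (e.g. mouse, rat, rabbit, pig, dog) preincubated 3 min at 37 °C with test substance and cephalin/kaolin PTT reagent. Value is the concentration giving a 1.5-fold aPTT extension.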

Counter-ions that a name gives are not always drawn.

T1 sequence (P03951 388-625 limits assumed): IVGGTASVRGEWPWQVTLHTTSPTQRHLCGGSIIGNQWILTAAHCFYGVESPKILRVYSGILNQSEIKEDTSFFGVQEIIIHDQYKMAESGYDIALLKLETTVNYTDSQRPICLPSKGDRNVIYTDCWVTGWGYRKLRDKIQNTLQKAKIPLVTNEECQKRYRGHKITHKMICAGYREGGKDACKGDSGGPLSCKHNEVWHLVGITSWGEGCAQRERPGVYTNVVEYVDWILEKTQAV
T1 sequence (P03951 19-387 partner limits assumed): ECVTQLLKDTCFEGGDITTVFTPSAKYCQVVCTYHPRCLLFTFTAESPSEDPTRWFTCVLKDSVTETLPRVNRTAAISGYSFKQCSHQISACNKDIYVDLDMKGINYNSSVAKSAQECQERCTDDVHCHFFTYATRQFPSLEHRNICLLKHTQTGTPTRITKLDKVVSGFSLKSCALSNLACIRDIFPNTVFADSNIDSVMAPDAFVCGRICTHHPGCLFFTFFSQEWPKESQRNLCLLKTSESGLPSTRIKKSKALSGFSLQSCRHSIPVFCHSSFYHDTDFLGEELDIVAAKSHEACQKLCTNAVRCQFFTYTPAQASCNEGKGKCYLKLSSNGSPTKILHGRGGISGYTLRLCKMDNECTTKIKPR

`NC[C@H]1CC[C@H](C(=O)N[C@@H](Cc2ccc(-c3ccc(F)c(C(=O)NC4CCNCC4)c3)cc2)C(=O)Nc2ccc(-c3nn[nH]n3)cc2)CC1` [Example 35, 4′-[(2S)-2-({[trans-4-(Aminomethyl)cyclohexyl]carbonyl}amino)-3-oxo-3-{[4-(2H-tetrazol-5-yl)phenyl]amino}propyl]-4-fluoro-N-(piperidin-4-yl)biphenyl-3-carboxamide hydrochloride]: half-maximal inhibition against human factor XIa (IC50) required 10 nM. Also, in the assay with human and animal plasma, the “aPTT (concentration of test substance which brings about a 1.5-fold extension of the aPTT)” value turned out to be 0.2 µmol/L.

The molecule `Cc1ccc(C(=O)NC2CCNC(=O)C2)cc1-c1ccc(C[C@H](NC(=O)[C@H]2CC[C@H](CN)CC2)C(=O)Nc2ccc(-c3nn[nH]n3)cc2)cc1` (stereo partly drawn) [Example 36, 4′-[(2S)-2-({[trans-4-(Aminomethyl)cyclohexyl]carbonyl}amino)-3-oxo-3-{[4-(2H-tetrazol-5-yl)phenyl]amino}propyl]-6-methyl-N-(2-oxopiperidin-4-yl)biphenyl-3-carboxamide hydrochloride] registered an IC50 against human factor XIa of 1.9 nM. In the assay on human and animal plasma, the “aPTT (concentration of test substance which brings about a 1.5-fold extension of the aPTT)” value came out at 0.14 µmol/L.

For the molecule `Cc1cc(C(=O)NC2CCC(N(C)C)CC2)cc(-c2ccc(C[C@H](NC(=O)[C@H]3CC[C@H](CN)CC3)C(=O)Nc3ccc(-c4nn[nH]n4)cc3)cc2)c1` (stereo partly drawn) [Example 37, 4′-[(2S)-24 {[trans-4-(Aminomethyl)cyclohexyl]carbonyl}amino)-3-oxo-3-{[4-(2H-tetrazol-5-yl)phenyl]amino}propyl]-N-[4-(dimethylamino)cyclohexyl]-5-methylbiphenyl-3-carboxamide hydrochloride], it took 7.5 nM to reach half-maximal inhibition against human factor XIa (IC50). For the same molecule, the “aPTT (concentration of test substance which brings about a 1.5-fold extension of the aPTT)” value with human and animal plasma was determined as 0.14 µmol/L.

With `Cc1ccc(-c2ccc(C[C@H](NC(=O)[C@H]3CC[C@H](CN)CC3)C(=O)Nc3ccc(-c4nn[nH]n4)cc3)cc2)cc1C(=O)N1CCOCC1` [Example 38, trans-4-(Aminomethyl)-N-[(2S)-3-[4′-methyl-3′-(morpholin-4-ylcarbonyl)biphenyl-4-yl]-1-oxo-1-{[4-(2H-tetrazol-5-yl)phenyl]amino}propan-2-yl]cyclohexanecarboxamide hydrochloride], the IC50 at human factor XIa came to 4.1 nM. Moreover, in the assay with human and animal plasma, the “aPTT (concentration of test substance which brings about a 1.5-fold extension of the aPTT)” value came to 0.22 µmol/L.

On human factor XIa, `Cc1cc(C(=O)NC2CCNCC2)cc(-c2ccc(C[C@H](NC(=O)[C@H]3CC[C@H](CN)CC3)C(=O)Nc3ccc(-c4nn[nH]n4)cc3)cc2)c1` [Example 40, 4′-[(2S)-2-({[trans-4-(Aminomethyl)cyclohexyl]carbonyl}amino)-3-oxo-3-{[4-(2H-tetrazol-5-yl)phenyl]amino}propyl]-5-methyl-N-(piperidin-4-yl)biphenyl-3-carboxamide hydrochloride] displayed an IC50 of 4.1 nM. In the assay with human and animal plasma, the “aPTT (concentration of test substance which brings about a 1.5-fold extension of the aPTT)” value stood at 0.06 µmol/L.

As for `Cc1ccc(C(=O)NC2CCN(C)CC2)cc1-c1ccc(C[C@H](NC(=O)[C@H]2CC[C@H](CN)CC2)C(=O)Nc2ccc(-c3nc(C(F)(F)C(F)(F)C(=O)O)n[nH]3)cc2)cc1` [Example 42, 3-[5-(4-{[(2S)-2-({[trans-4-(Aminomethyl)cyclohexyl]carbonyl}amino)-3-{2′-methyl-5′-[(1-methylpiperidin-4-yl)carbamoyl]biphenyl-4-yl}propanoyl]amino}phenyl)-1H-1,2,4-triazol-3-yl]-2,2,3,3-tetrafluoropropanoic acid hydrochloride], on human factor XIa, the IC50 stood at 6.8 nM. Besides, the “aPTT (concentration of test substance which brings about a 1.5-fold extension of the aPTT)” value in the assay with human and animal plasma came out at 0.16 µmol/L.

Take `Cc1ccc(C(=O)NC(C)C)cc1-c1ccc(C[C@H](NC(=O)[C@H]2CC[C@H](CN)CC2)C(=O)Nc2ccc(-c3nc(CCC(=O)O)n[nH]3)cc2)cc1` [Example 43, 3-{5-[4-({(2S)-2-({[trans-4-(Aminomethyl)cyclohexyl]carbonyl}amino)-3-[5′-(isopropylcarbamoyl)-2′-methylbiphenyl-4-yl]propanoyl}amino)phenyl]-1H-1,2,4-triazol-3-yl}propanoic acid hydrochloride]: inhibition at human factor XIa was half-maximal at 9.7 nM (IC50). Besides, the “aPTT (concentration of test substance which brings about a 1.5-fold extension of the aPTT)” value in the assay with human and animal plasma worked out at 0.38 µmol/L.

As to `COc1ccc(-c2ccc(C[C@H](NC(=O)[C@H]3CC[C@H](CN)CC3)C(=O)Nc3ccc(-c4nc(C(F)(F)C(F)(F)C(=O)O)n[nH]4)cc3)cc2)cc1S(=O)(=O)N1CCOCC1` [Example 44, 3-{5-[4-({(2S)-2-({[trans-4-(Aminomethyl)cyclohexyl]carbonyl}amino)-3-[4′-methoxy-3′-(morpholin-4-ylsulphonyl)biphenyl-4-yl]propanoyl}amino)phenyl]-1H-1,2,4-triazol-3-yl}-2,2,3,3-tetrafluoropropanoic acid hydrochloride], on human factor XIa, the midpoint of inhibition, the IC50, lay at 2.2 nM. Further, the “aPTT (concentration of test substance which brings about a 1.5-fold extension of the aPTT)” value in the assay on human and animal plasma was 0.2 µmol/L.

As a reminder, the IC50 is the concentration that gives 50% inhibition. A higher IC50 goes with lower potency.
